Data on 1 molecule can be found in US9657031B2, “Ant-ligands molecules and biological applications” (MITOLOGICS, priority 2008, dated 2017).

Data set [1] concerns HT-29 and BxPC3 tumor cell lines. Kind of data set: Multiparametric analysis of cell death (flow cytometry) on tumor cell lines. It counts as cell-based, human. Particulars: for effect of caspase / cathepsin B inhibitors on apoptosis induced by the ANT-ligand: z-VAD-fmk, Q-VD-OPH, Z-FA-fmk, Bax/Bak deletion. Here is the method: FIG. 2: The ANT-ligand is pro-apoptotic on HT-29 and BxPC3 tumor cell lines • (A) Chemical structure of compound 1 • (B) Multiparametric analysis (chromatin condensation, mitochondrial transmembrane potential (L′m) loss, plasma membrane permeabilization, phosphatidylserine exposure) of cellular effects of the ANT-ligand on BxPC3 cell line after 48 h treatment. • (C) Effects of compound 1 on ADP/ATP translocator activity of ANT measured on isolated mitochondria from mice liver or HT-29 tumor cell line (IC50 is given in μM based on ANT assays) and on viability of HT-29 and BxPC3 tumor cell lines (LD50 is given in μM based on MTT assays at 48 h).
(§1) MTT assay was used to evaluate the viability of a large range of human cell lines in presence of small molecules. Dose-response experiments allow us to determine a lethal-dose 50 (LD50; dose killing 50% of the cellular population) for each compound on a particular cell type after a 48-hour incubation. This viability assay is used as a first screening assay to identify cell-permeant molecules able to induce cell death (cytotoxic) or growth delay (cytostatic) among the 956 molecules of the ANT-ligands library. We have chosen to select molecules having an LD50 below 50 μM on HT-29 (colon adenocarcinoma) or BxPC3 (pancreatic adenocarcinoma) cell lines. These molecules come into the ANT activity screening assays and the efficient ANT-inhibitors (IC50 below 50 μM) are investigated for their mechanisms of cell death induction. Indeed, the characterisation of cell death consists in a multiparametric analysis of treated-cells by flow cytometry (FacsCalibur, Becton Dickinson) where can be measured (1) the loss of mitochondrial trans-membrane potential (L′m; DIOC6 labelling), (2) the plasma membrane permeabilization (Propidium Iodide labeling) and (3) the phosphatidylserines exposure (Annexin-V-fitc labelling).
On the technique in general: In flow cytometry, cells or beads pass a laser one at a time.

Data set [2] relates to S. cerevisiae WT (W303) and JL1-3 (ΔANT 1, 2 & 3) strains. The experiment in a line: Clonogenic assays on S. cerevisiae strains deficient for ANT isoforms. It counts as cell-based. The note with it: ΔANT 1, 2 & 3 vs WT; viability at 48 h after 2 h incubation. As for the experimental part: The importance of ANT isoforms in cytotoxic effects of the selected ANT-ligands has been evaluated using S. cerevisiae strains deficient for ANT isoforms (FIG. 5). Clonogenic assays on these strains are used to ensure that cytotoxic effects of the ANT-ligands are really due to the expression of ANTs in the cells.
FIG. 5: Target validation of compound 1 using ANT-deficient yeasts • (A) Quantitative estimation of yeasts viability at 48 h after 2 h incubation with compound 1 • (B) Illustration of WT (W303) and JL1-3 (LANT1, 2 and 3) yeast strains growth on plates at 48 h after 2 h incubation with compound 1.

The subject of data set [3] is Wi-38 (normal lung fibroblasts). The experiment in a line: Multiparametric analysis of cellular effects on Wi-38 cell line. The data set is classed as cell-based. The note with it: Wi-38, compared to HT-29, BxPC3, 48 h and 72 h treatments. As for the experimental part: FIG. 4: Compound 1 induces low toxicity on normal fibroblast Wi-38 • A) Expression pattern of ANT isoforms in HT-29, BxPC3 and Wi-38 (normal lung fibroblasts) cell lines after RT-PCR reaction on total RNA • (B) Multiparametric analysis (mitochondrial transmembrane potential, plasma membrane permeabilization, phosphatidylserine exposure) of cellular effects of the ANT-ligand on Wi-38 cell line after 48 h and 72 h treatments.
as §1, with “We have chosen to select molecules having an LD50 below 50 μM on HT-29 (colon adenocarcinoma) or BxPC3 (pancreatic adenocarcinoma) cell lines. These molecules come into the ANT activity screening assays and the efficient ANT-inhibitors (IC50 below 50 μM) are investigated for their mechanisms of cell death induction.” left out

In a further data set the test system is lymphocytes (PBMC). The experiment in a line: Toxicity on lymphocytes (PBMC). The data set is classed as cell-based. The note with it: doses below 400 μM; data not shown.

Structures are written as SMILES.

For the molecule `O=C(O)CCCCn1c(SCc2ccccc2Cl)nc2ccsc2c1=O` [Compound 1], the “apoptosis hallmarks (mitochondrial potential loss, phosphatidylserine exposure, plasma membrane permeabilization, chromatin condensation)” value in data set [1] (multiparametric analysis) is “induces classical hallmarks of apoptosis”. In addition, the mitochondrial trans-membrane potential result in data set [1] (tumor cells) is given as “induces dissipation of the mitochondrial trans-membrane potential”. The “effect of caspase / cathepsin B inhibitors on apoptosis induced by the ANT-ligand” value in data set [1] is “inhibited by pan-caspase inhibitors (z-VAD-fmk, Q-VD-OPH) but not by the cathepsin B inhibitor (Z-FA-fmk)”; in data set [1] (listed as compound 1), “abolished by caspase inhibitors”. Also, in data set [2], the “resistance of ANT-deficient yeast strain versus wild-type” value was “more resistant to the compound 1 than the wild-type (WT) control strain”. In addition, the entries for the “toxicity on normal lung fibroblasts” value in data set [3] and in data set [3] (listed as compound 1) were “low toxicity” and “minor compared to tumor cells”, respectively. In addition, the “toxicity on lymphocytes (PBMC)” value with lymphocytes (PBMC) is recorded as “no sign of toxicity”.
